Results reported in article PMC12308784, “Organometallic Half-Sandwich Complexes of 1,10-Phenanthroline Derivatives with Improved Solubility, Albumin-Binding, and Nanoformulation Potential Targeting Drug Resistance in Cancer” (Inorganic Chemistry, 2025).
“And” between values parts separate entries of the source, which are not always exact repeats. Equal values may be shown once.

Tests used:
[1] = H2O/Cl– co-ligand exchange constant by UV–vis spectrophotometry; type: physicochemical; settings: pH = 6.0, 20 mM phosphate buffer; t = 25 °C
Description: The coordinated chlorido ligand can undergo spontaneous partial exchange upon dissolution, making it essential to determine the equilibrium constant for the [M(η^6-arene/η^5-arenyl)(ligand)-Cl]^+ + H2O ⇌ [M(η^6-arene/η^5-arenyl)(ligand)(H2O)]^2+ + Cl^– process (or for the reverse direction) to evaluate the ratio of chlorido to aqua complexes. The logK′ (H2O/Cl^–) constants were determined by UV–vis spectrophotometry (Figure ) due to the changes in the charge transfer bands. […] Importantly, this process is slow for the RuCym complexes, which requires a longer time to reach equilibrium, necessitating careful equilibration in experimental setups before further analysis. Therefore, in the case of the RuCym complexes, individual samples were prepared and their spectra were measured after 1 h, while the spectra for the RhCp* complexes were obtained by direct titration with the KCl solution. The appearance of isosbestic points in the spectra confirms the clear equilibrium between chlorido- and aqua complexes.
4 (a) Changes in the UV–vis spectra of complex RuCymBP due to the H2O/Cl^– coligand exchange process, (b) with absorbance variation at 357 nm plotted as a function of the chloride concentration (○) with the fitted curve (dashed line). Individual samples were prepared and the spectra were recorded after 1 h waiting time. {c complex = 28 μM; c Cl– = 56 μM – 0.29 M; t = 25 °C; pH = 6.0 (20 mM phosphate buffer)}.
An Agilent Cary 8454 diode array spectrophotometer was utilized to obtain UV–vis spectra in the wavelength range 190–1100 nm; the path length was 1 cm. The concentrations of the complexes were between 20 and 100 μM. The actual pH of the samples were measured with an Orion 710A pH-meter equipped with a Metrohm combined electrode (type 6.0234.100) and the pH titrations were performed by a KOH solution using a Metrohm 665 Dosimat buret at 25.0 °C. […] The computer program HypSpec was used to calculate the equilibrium constants.

[2] = biological target: T1, human serum albumin (HSA), Trp-214 in Sudlow’s site I (Homo sapiens, UniProt P02768); test: Trp-214 fluorescence quenching of HSA; type: binding; settings: PBS’; t = 25 °C; 24 h incubation; c HSA = 1.2 μM; RuCym values conditional at 24 h
T1 construct: purchased Sigma-Aldrich A8763
T1 sequence (P02768 25-609): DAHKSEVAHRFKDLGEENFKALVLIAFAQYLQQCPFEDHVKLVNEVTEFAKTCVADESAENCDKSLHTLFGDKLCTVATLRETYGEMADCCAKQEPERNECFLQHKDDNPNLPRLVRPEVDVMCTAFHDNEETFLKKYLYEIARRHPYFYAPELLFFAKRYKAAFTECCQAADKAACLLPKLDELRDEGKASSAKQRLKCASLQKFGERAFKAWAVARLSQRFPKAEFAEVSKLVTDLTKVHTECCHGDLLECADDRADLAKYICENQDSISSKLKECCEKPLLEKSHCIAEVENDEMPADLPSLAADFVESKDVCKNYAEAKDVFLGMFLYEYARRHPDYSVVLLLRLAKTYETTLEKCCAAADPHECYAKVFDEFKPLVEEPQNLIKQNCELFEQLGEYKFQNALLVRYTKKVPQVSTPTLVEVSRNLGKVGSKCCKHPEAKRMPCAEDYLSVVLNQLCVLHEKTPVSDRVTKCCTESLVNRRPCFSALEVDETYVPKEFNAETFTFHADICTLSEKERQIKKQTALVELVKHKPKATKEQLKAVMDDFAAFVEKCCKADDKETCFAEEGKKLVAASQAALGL
From the text: Fluorescence spectroscopy was utilized to elucidate the binding sites on HSA that are targeted by the metal complexes. This investigation concentrated on two key aspects: the quenching of HSA’s intrinsic fluorescence attributed to the sole tryptophan residue (Trp-214) and the displacement of site-specific fluorescent markers warfarin (WF) and dansylglycine (DG). Trp-214 is situated in Sudlow’s site I within the IIA subdomain, rendering it a valuable probe for evaluating interactions at this site. Fluorometric measurements, conducted over a 5 h time frame (see example for RhCp*BP in Figure S19), corroborated the results of UV–vis experiments, the quenching of fluorescence took several hours for the RhCp* complexes, while RuCym compounds had no remarkable effect of Trp-214 fluorescence. Quenching studies were conducted over a 24 h incubation period. This time frame is most probably not enough to reach equilibrium with RuCym complexes; however, this is considered as the upper limit that can be physiologically relevant, as longer incubation times are rendered irrelevant by metabolism and elimination. […] Quenching constants (KQ^′) were computed using HypSpec software. […] It should be noted that quenching constants calculated for the RuCym complexes represent only a temporary state at 24 h of incubation time.
7 Binding interactions of RhCp*BP with HSA analyzed via fluorescence quenching and marker displacement assays. (a) Trp214 fluorescence quenching by RhCp*BP. (b) Measured (dots) and fitted (dashed lines) quenching curves for RhCp*BP, RuCymBP, RhCp*DCP, and RuCymDCP. Fluorescence spectra of the (c) HSA–WF 1:1 and (e) HSA–DG 1:1 systems by the addition of RhCp*BP (dashed lines indicate the free site marker) and the corresponding fluorescence intensity curves at the indicated wavelengths (d,f). The dotted line in figure (d) denotes the fitted intensities. {c HSA = 1.2 μM; c marker = 0 or 1.2 μM PBS’; t = 25 °C}.
Fluorescence measurements were carried out on a Fluoromax (Horiba Jobin Yvon) spectrofluorometer using a 1 cm × 1 cm quartz cuvette in order to assess the interactions of the complexes with HSA in PBS’ medium at 25 °C. The calculated quenching or displacement conditional constants for the HSA-complex species were obtained using the computer program HypSpec. Calculations always were based on data obtained from at least two independent measurements. Self-absorbance and inner filter effect had to be taken into account, and corrections were made as it was described in our former works. , […]
Table S7. Conditions applied for steady -state spectrofluorometric measurements. cHSA cMARKER ccomplex λEX λEM slit widths […]

[3] = biological target: T2, HSA Sudlow’s site II (IIIA subdomain) (Homo sapiens, UniProt P02768); test: dansylglycine (DG) site marker displacement on HSA; type: binding; settings: HSA–DG 1:1; PBS’; t = 25 °C
T2 construct: purchased Sigma-Aldrich A8763
T2 sequence (P02768 25-609): as above
Description: To further explore the binding affinity and site specificity of the metal complexes, site marker displacement experiments were conducted using WF and DG, which bind to Sudlow’s site I (in IIA subdomain) and to Sudlow’s site II (in IIIA subdomain), respectively. The displacement of these fluorescence probes directly confirms the interactions of the metal complexes with the respective binding sites. The displacement constants of WF (KWF′) by the metal complexes (Figure c,d, Table ) were correlated with the Trp-214 quenching data.
Fluorescence measurements were carried out on a Fluoromax (Horiba Jobin Yvon) spectrofluorometer using a 1 cm × 1 cm quartz cuvette in order to assess the interactions of the complexes with HSA in PBS’ medium at 25 °C. The calculated quenching or displacement conditional constants for the HSA-complex species were obtained using the computer program HypSpec. Calculations always were based on data obtained from at least two independent measurements. Self-absorbance and inner filter effect had to be taken into account, and corrections were made as it was described in our former works. ,
Table S7. Conditions applied for steady -state spectrofluorometric measurements.
cHSA cMARKER ccomplex λEX λEM slit widths
(μM) (μM) (μM) (nm) (nm) EX/EM […]
S.; Deflon, V. M.; Ferreira, A. G.; Cominetti, M. R.; Batista, A. A. Cytotoxicity of Ru(II) Piano-
Stool Complexes with Chloroquine and Chelating Ligands against Breast and Lung Tumor Cells:
Interactions with DNA and BSA. J Inorg Biochem 2015, 153, 150–161.
Van Deun, R.; Van Hecke, K. Antitumor Activity of Organoruthenium Complexes with Chelate

Compound	logK′ (H2O/Cl–) [1]	logK Q′ (quenching constant) [2]	DG displacement / interaction with Sudlow’s site II [3]
Cc1ccc(C(C)C)cc1.[Cl-].[Cl-].[Ru+2].c1ccc(-c2ccnc3c2ccc2c(-c4ccccc4)ccnc23)cc1 [RuCymBP, [Ru(II)(η^6-p-cymene)(bathophenanthroline)Cl]Cl]	2.31 ± 0.13	4.3 ± 0.1	no significant interaction
[Rh(III)(η^5-C5Me5)(bathophenanthroline)Cl]Cl [RhCp*BP]	2.98 ± 0.01	5.5 and 5.5 ± 0.1	able to displace the DG
Cc1c(C)c(C)[c-](C)c1C.Clc1ccnc2c1ccc1c(Cl)ccnc12.[Cl-].[Cl-].[Rh+3] [RhCp*DCP, [Rh(III)(η^5-C5Me5)(4,7-dichloro-1,10-phenanthroline)Cl]Cl]	2.85 ± 0.01 ^b	4.6 and 4.6 ± 0.1	no significant interaction
Cc1ccc(C(C)C)cc1.Clc1ccnc2c1ccc1c(Cl)ccnc12.[Cl-].[Cl-].[Ru+2] [RuCymDCP, [Ru(II)(η^6-p-cymene)(4,7-dichloro-1,10-phenanthroline)Cl]Cl]	2.31 ± 0.03	≤3.8	no significant interaction
